Test results: patent publication US12281149B2, “Modulators of G-protein coupled receptors” (priority 2021, dated 2025)
Where two headings read alike, the source gives them in different places. *1 amine or outer side, *2 acyl side, *3 side chain or, on linkers, in order; H or OH if unused. Where a SMILES comes first, the peptide text is derived from it. Side-chain parts run from the residue outwards. [ ]: non-standard residue; d: D form. The star is where a group is joined. Isobutyryl(2-(3-CN-5-F-Ph)) = CC(C)(C(=O)*)c1cc(F)cc(C#N)c1; Cyclopropanecarbonyl(1-Ph) = O=C(C1(c2ccccc2)CC1)*; NH(4-Cl-3-CF3-phenyl) = FC(F)(F)c1cc(N*)ccc1Cl; C20 diacid = O=C(O)CCCCCCCCCCCCCCCCCCC(=O)*; γGlu = O=C(O)[C@H](CCC(=O)[*:2])N[*:1]; αMeF = C[C@](N)(Cc1ccccc1)C(=O)O; β3hA = C[C@H](N)CC(=O)O; AEEA = NCCOCCOCC(=O)O; Aib = CC(C)(N)C(=O)O; CO = O=C([*:1])[*:2]; GABA = NCCCC(=O)O; βAla = NCCC(=O)O

Tests used:
Assay type in all cases: cell-based
GLP-1 receptor [1] = molecular target: T1, GLP-1 receptor (Homo sapiens, UniProt P43220); test: PathHunter β-arrestin assay, GLP-1 receptor; parameters: host or cells: PathHunter CHO-K1 GLP1R β-Arrestin Cell Line
T1 sequence (P43220 24-463): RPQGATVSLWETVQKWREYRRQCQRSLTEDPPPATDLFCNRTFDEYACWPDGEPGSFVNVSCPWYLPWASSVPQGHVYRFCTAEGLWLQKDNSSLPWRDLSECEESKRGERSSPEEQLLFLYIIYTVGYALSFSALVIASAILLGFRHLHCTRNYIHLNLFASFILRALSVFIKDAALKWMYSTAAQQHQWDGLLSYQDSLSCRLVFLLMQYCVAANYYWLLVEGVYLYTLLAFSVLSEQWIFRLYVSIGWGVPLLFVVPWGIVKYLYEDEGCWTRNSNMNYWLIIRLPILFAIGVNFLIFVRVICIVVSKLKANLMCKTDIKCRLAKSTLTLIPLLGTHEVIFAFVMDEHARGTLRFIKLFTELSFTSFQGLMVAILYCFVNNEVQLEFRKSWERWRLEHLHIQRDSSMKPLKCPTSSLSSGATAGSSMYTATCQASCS

GLP-1 receptor [2] = molecular target: T1, GLP-1 receptor; test: HitHunter cAMP assay, GLP-1 receptor; settings: for Emax: read-out: Emax GLP-1R
GIP receptor [3] = molecular target: T2, GIP receptor (Homo sapiens, UniProt P48546); test: HitHunter cAMP assay, GIP receptor; settings: for Emax: read-out: Emax GIP-1R
T2 sequence (P48546 22-466): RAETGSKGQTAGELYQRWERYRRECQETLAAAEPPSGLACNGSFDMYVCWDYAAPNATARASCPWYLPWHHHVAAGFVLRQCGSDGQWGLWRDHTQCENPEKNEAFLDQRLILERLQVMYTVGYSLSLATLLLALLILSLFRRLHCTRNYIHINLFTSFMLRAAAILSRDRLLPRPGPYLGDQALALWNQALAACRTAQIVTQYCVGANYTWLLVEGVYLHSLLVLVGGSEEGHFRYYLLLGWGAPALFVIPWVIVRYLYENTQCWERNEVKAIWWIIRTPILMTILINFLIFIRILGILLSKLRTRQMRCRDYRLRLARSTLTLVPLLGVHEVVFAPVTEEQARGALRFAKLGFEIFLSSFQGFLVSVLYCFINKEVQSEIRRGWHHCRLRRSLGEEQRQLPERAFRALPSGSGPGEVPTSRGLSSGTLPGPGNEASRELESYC

GIP receptor [4] = molecular target: T2, GIP receptor; test: PathHunter β-arrestin assay, GIP receptor; parameters: host or cells: PathHunter CHO-K1 GIPR β-Arrestin Cell Line
[5] = β-arrestin-2 recruitment, PathHunter CHO-K1 GLP1R β-Arrestin Cell Line, 90 min at 37° C., normalized to GLP-1, read-out: GLP-1R β Arrestin EC50
[6] = CHO cells stably expressing human GLP-1 receptor, cAMP accumulation, 30 min, read-out: EC50 GLP-1R
[7] = CHO cells, cAMP, normalized to maximum signal from GLP-1 (high) and DMSO (low)
[8] = CHO cells stably expressing GIP receptor, cAMP accumulation, 30 min, read-out: EC50 GIP-1R
[9] = CHO cells, cAMP, normalized to maximum signal from GIP (high) and DMSO (low)
[10] = β-arrestin-2 recruitment, PathHunter CHO-K1 GIPR β-Arrestin Cell Line, 90 min at 37° C., normalized to GIP, read-out: GIPR β Arrestin EC50

Structure (SMILES)	EC50 (GLP-1 receptor [1]; [5])	EC50 (GLP-1 receptor [2]; [6])	Emax (GLP-1 receptor [2]; [7])	EC50 (GIP receptor [3]; [8])	Emax (GIP receptor [3]; [9])	EC50 (GIP receptor [4]; [10])	EC50 (GLP-1 receptor [1])	EC50 (GLP-1 receptor [2])	Emax (GLP-1 receptor [2]; CHO)	EC50 (GIP receptor [3])	Emax (GIP receptor [3]; CHO)	EC50 (GIP receptor [4])
CC[C@H](C)[C@H](NC(=O)[C@H](CC(C)C)NC(=O)[C@H](Cc1c[nH]c2ccccc12)NC(=O)[C@H](CCC(N)=O)NC(=O)[C@@H](NC(=O)[C@H](Cc1ccccc1)NC(=O)[C@H](C)NC(=O)[C@H](CCCCNC(=O)COCCOCCNC(=O)COCCOCCNC(=O)CC[C@H](NC(=O)CCCCCCCCCCCCCCCCCCC(=O)O)C(=O)O)NC(=O)[C@H](CCC(N)=O)NC(=O)[C@H](C)NC(=O)[C@@H](NC(=O)[C@H](CCCCN)NC(=O)[C@H](CC(=O)O)NC(=O)[C@H](CC(C)C)NC(=O)C(C)(C)NC(=O)[C@@H](NC(=O)[C@H](CO)NC(=O)[C@H](Cc1ccc(O)cc1)NC(=O)[C@H](CC(=O)O)NC(=O)[C@H](CO)NC(=O)[C@@H](NC(=O)[C@](C)(Cc1ccccc1)NC(=O)[C@@H](NC(=O)CNC(=O)[C@H](CCC(=O)O)NC(=O)CCNC(=O)C(C)(C)c1cc(F)cc(C#N)c1)[C@@H](C)O)[C@@H](C)O)[C@@H](C)CC)[C@@H](C)CC)C(C)C)C(=O)N[C@@H](C)C(=O)NCC(=O)NCC(=O)N1CCC[C@H]1C(=O)N[C@@H](CO)C(=O)N[C@@H](CO)C(=O)NCC(=O)N[C@@H](C)C(=O)N1CCC[C@H]1C(=O)N1CCC[C@H]1C(=O)N1CCC[C@H]1C(=O)N[C@@H](CO)C(N)=O [Compound 235] ({Isobutyryl(2-(3-CN-5-F-Ph))-βAla}-EGT[αMeF]TSDYSI[Aib]LDKIAQK([AEEA-AEEA-γGlu-C20 diacid])AFVQWLIAGGPSSGAPPPS-NH2)	> 1 µM	0.0001 to 0.001 µM	122%	0.0001 to 0.001 µM	108%	< 1 µM	–	–	–	–	–	–
CC[C@H](C)[C@H](NC(=O)[C@H](CC(C)C)NC(=O)[C@H](Cc1c[nH]c2ccccc12)NC(=O)[C@H](CCC(N)=O)NC(=O)[C@@H](NC(=O)[C@H](Cc1ccccc1)NC(=O)[C@H](C)NC(=O)[C@H](CCCCNC(=O)COCCOCCNC(=O)COCCOCCNC(=O)CC[C@H](NC(=O)CCCCCCCCCCCCCCCCCCC(=O)O)C(=O)O)NC(=O)[C@H](CCC(N)=O)NC(=O)[C@H](C)NC(=O)[C@@H](NC(=O)[C@H](CCCCN)NC(=O)[C@H](CC(=O)O)NC(=O)[C@H](CC(C)C)NC(=O)C(C)(C)NC(=O)[C@@H](NC(=O)[C@H](CO)NC(=O)[C@H](Cc1ccc(O)cc1)NC(=O)[C@H](CC(=O)O)NC(=O)[C@H](CO)NC(=O)[C@@H](NC(=O)[C@H](Cc1ccccc1)NC(=O)[C@@H](NC(=O)CNC(=O)[C@H](CCC(=O)O)NC(=O)CCCNC(=O)CNC(=O)Nc1ccc(Cl)c(C(F)(F)F)c1)[C@@H](C)O)[C@@H](C)O)[C@@H](C)CC)[C@@H](C)CC)C(C)C)C(=O)N[C@@H](C)C(=O)NCC(=O)NCC(=O)N1CCC[C@H]1C(=O)N[C@@H](CO)C(=O)N[C@@H](CO)C(=O)NCC(=O)N[C@@H](C)C(=O)N1CCC[C@H]1C(=O)N1CCC[C@H]1C(=O)N1CCC[C@H]1C(=O)N[C@@H](CO)C(N)=O [Compound 265] ({NH(4-Cl-3-CF3-phenyl)-CO}-G[GABA]EGTFTSDYSI[Aib]LDKIAQK([AEEA-AEEA-γGlu-C20 diacid])AFVQWLIAGGPSSGAPPPS-NH2)	–	–	–	–	–	–	> 1 µM	0.01 to 0.1 µM	94%	0.001 to 0.01 µM	107%	< 1 µM
CC[C@H](C)[C@H](NC(=O)[C@H](CC(C)C)NC(=O)[C@H](Cc1c[nH]c2ccccc12)NC(=O)[C@H](CCC(N)=O)NC(=O)[C@@H](NC(=O)[C@H](Cc1ccccc1)NC(=O)[C@H](C)NC(=O)[C@H](CCCCNC(=O)COCCOCCNC(=O)COCCOCCNC(=O)CC[C@H](NC(=O)CCCCCCCCCCCCCCCCCCC(=O)O)C(=O)O)NC(=O)[C@H](CCC(N)=O)NC(=O)[C@H](C)NC(=O)[C@@H](NC(=O)[C@H](CCCCN)NC(=O)[C@H](CC(=O)O)NC(=O)[C@H](CC(C)C)NC(=O)C(C)(C)NC(=O)[C@@H](NC(=O)[C@H](CO)NC(=O)[C@H](Cc1ccc(O)cc1)NC(=O)[C@H](CC(=O)O)NC(=O)[C@H](CO)NC(=O)[C@@H](NC(=O)[C@H](Cc1ccccc1)NC(=O)[C@@H](NC(=O)CNC(=O)[C@@H](CC(=O)O)NC(=O)CCNC(=O)C(C)(C)c1cc(F)cc(C#N)c1)[C@@H](C)O)[C@@H](C)O)[C@@H](C)CC)[C@@H](C)CC)C(C)C)C(=O)N[C@@H](C)C(=O)NCC(=O)NCC(=O)N1CCC[C@H]1C(=O)N[C@@H](CO)C(=O)N[C@@H](CO)C(=O)NCC(=O)N[C@@H](C)C(=O)N1CCC[C@H]1C(=O)N1CCC[C@H]1C(=O)N1CCC[C@H]1C(=O)N[C@@H](CO)C(N)=O [Compound 127] ({Isobutyryl(2-(3-CN-5-F-Ph))-βAla}-[dD]GTFTSDYSI[Aib]LDKIAQK([AEEA-AEEA-γGlu-C20 diacid])AFVQWLIAGGPSSGAPPPS-NH2)	> 1 µM	0.001 to 0.01 µM	93%	0.1 to 1 µM	82%	> 1 µM	–	–	–	–	–	–
CC[C@H](C)[C@H](NC(=O)[C@H](CC(C)C)NC(=O)[C@H](Cc1c[nH]c2ccccc12)NC(=O)[C@H](CCC(N)=O)NC(=O)[C@@H](NC(=O)[C@H](Cc1ccccc1)NC(=O)[C@H](C)NC(=O)[C@H](CCCCNC(=O)COCCOCCNC(=O)COCCOCCNC(=O)CC[C@H](NC(=O)CCCCCCCCCCCCCCCCCCC(=O)O)C(=O)O)NC(=O)[C@H](CCC(N)=O)NC(=O)[C@H](C)NC(=O)[C@@H](NC(=O)[C@H](CCCCN)NC(=O)[C@H](CC(=O)O)NC(=O)[C@H](CC(C)C)NC(=O)C(C)(C)NC(=O)[C@@H](NC(=O)[C@H](CO)NC(=O)[C@H](Cc1ccc(O)cc1)NC(=O)[C@H](CC(=O)O)NC(=O)[C@H](CO)NC(=O)[C@@H](NC(=O)[C@H](Cc1ccccc1)NC(=O)[C@@H](NC(=O)CNC(=O)[C@H](CCC(=O)O)NC(=O)C[C@H](C)NC(=O)C(C)(C)c1cc(F)cc(C#N)c1)[C@@H](C)O)[C@@H](C)O)[C@@H](C)CC)[C@@H](C)CC)C(C)C)C(=O)N[C@@H](C)C(=O)NCC(=O)NCC(=O)N1CCC[C@H]1C(=O)N[C@@H](CO)C(=O)N[C@@H](CO)C(=O)NCC(=O)N[C@@H](C)C(=O)N1CCC[C@H]1C(=O)N1CCC[C@H]1C(=O)N1CCC[C@H]1C(=O)N[C@@H](CO)C(N)=O [Compound 222] ({Isobutyryl(2-(3-CN-5-F-Ph))}-[β3hA]EGTFTSDYSI[Aib]LDKIAQK([AEEA-AEEA-γGlu-C20 diacid])AFVQWLIAGGPSSGAPPPS-NH2)	> 1 µM	0.0001 to 0.001 µM	108%	0.01 to 0.1 µM	101%	> 1 µM	–	–	–	–	–	–
CC[C@H](C)[C@H](NC(=O)[C@H](CC(C)C)NC(=O)[C@H](Cc1c[nH]c2ccccc12)NC(=O)[C@H](CCC(N)=O)NC(=O)[C@@H](NC(=O)[C@H](Cc1ccccc1)NC(=O)[C@H](C)NC(=O)[C@H](CCCCNC(=O)COCCOCCNC(=O)COCCOCCNC(=O)CC[C@H](NC(=O)CCCCCCCCCCCCCCCCCCC(=O)O)C(=O)O)NC(=O)[C@H](CCC(N)=O)NC(=O)[C@H](C)NC(=O)[C@@H](NC(=O)[C@H](CCCCN)NC(=O)[C@H](CC(=O)O)NC(=O)[C@H](CC(C)C)NC(=O)C(C)(C)NC(=O)[C@@H](NC(=O)[C@H](CO)NC(=O)[C@H](Cc1ccc(O)cc1)NC(=O)[C@H](CC(=O)O)NC(=O)[C@H](CO)NC(=O)[C@@H](NC(=O)[C@H](Cc1ccccc1)NC(=O)[C@@H](NC(=O)CNC(=O)[C@H](CCC(=O)O)NC(=O)CCNC(=O)C1(c2ccccc2)CC1)[C@@H](C)O)[C@@H](C)O)[C@@H](C)CC)[C@@H](C)CC)C(C)C)C(=O)N[C@@H](C)C(=O)NCC(=O)NCC(=O)N1CCC[C@H]1C(=O)N[C@@H](CO)C(=O)N[C@@H](CO)C(=O)NCC(=O)N[C@@H](C)C(=O)N1CCC[C@H]1C(=O)N1CCC[C@H]1C(=O)N1CCC[C@H]1C(=O)N[C@@H](CO)C(N)=O [Compound 199] ({Cyclopropanecarbonyl(1-Ph)-βAla}-EGTFTSDYSI[Aib]LDKIAQK([AEEA-AEEA-γGlu-C20 diacid])AFVQWLIAGGPSSGAPPPS-NH2)	> 1 µM	0.001 to 0.01 µM	100%	0.01 to 0.1 µM	102%	> 1 µM	–	–	–	–	–	–
